How the values were obtained:
E. coli bacteria [1] = test: Motion of suspended single layer CVD graphene with E. coli droplet, antibiotic susceptibility; assay type: cell-based; conditions: single layer chemical vapour deposited graphene, Lysogeny broth droplet
Protocol: In the embodiment of FIG. 2 a red helium-neon laser 114 is directed through optical components 115 on the 2D material layer 102 which is placed in a controlled humidity chamber 116. The intensity of the reflected light from the chip 109 is altered by the motion of the micro-organism 105 in the liquid droplet 111 that in turn moves the suspended 2D material 102. This intensity is then measured by a photodiode 117 connected to an oscilloscope 118. In one example a liquid droplet 111 containing micro-organism E. coli bacteria 105 and nutrition Lysogeny broth solution 112 has been dispensed on the sample receiver 101 comprising an array of single layer chemical vapour deposited graphene as the inert suspended layer 102. The motion is read out using the measurement system described in FIG. 2. The motion of the suspended layer is traced in a timeframe of a few seconds in the presence and absence of chemicals 113 and micro-organisms 105.

E. coli bacteria [2] = test: Motion of suspended silanized exfoliated 10 nm few layer graphene with adhered E. coli, antibiotic susceptibility; assay type: cell-based
Protocol: In the embodiment of FIG. 2 a red helium-neon laser 114 is directed through optical components 115 on the 2D material layer 102 which is placed in a controlled humidity chamber 116. The intensity of the reflected light from the chip 109 is altered by the motion of the micro-organism 105 in the liquid droplet 111 that in turn moves the suspended 2D material 102. This intensity is then measured by a photodiode 117 connected to an oscilloscope 118. In another example a liquid droplet 111 containing micro-organism E. coli bacteria 105 and nutrition Lysogeny broth solution 112 has been dispensed on the sample receiver 101 comprising an array of silanized natural crystal exfoliated 10 nm few layer thick graphene as the suspended material 102. FIGS. 4a, 4b and 4c show the time traces of the suspended layer in a timeframe of twelve minutes.

In the case of `O=C(N[C@H](CO)[C@H](O)c1ccc([N+](=O)[O-])cc1)C(Cl)Cl` [Chloramphenicol], the “change of variance of the time traces after adding antibiotic” value (E. coli bacteria [1]; FIG. 3d) is reported as “drops about three times”, the “fluctuations of the motion time trace (bacterial metabolic activity) after addition of antibiotic” value (E. coli bacteria [1]; timeframe of a few seconds, FIG. 3c) is reported as “No fluctuations are observed” and the “change in average amplitude of the amplitude spectrum of the time traces after adding antibiotic” value (E. coli bacteria [2]; FIGS. 5a-b (FIG. 4a vs FIG. 4c)) is reported as “tenfold decrease”. For the same molecule, the “fluctuations of the motion time trace (bacterial metabolic activity) after addition of antibiotic” value (E. coli bacteria [2]; adhered bacteria, timeframe of twelve minutes, FIGS. 4b, 4c) was “No fluctuations are observed” and the “change of variance of the time traces after adding antibiotic” value (E. coli bacteria [2]; timeframe of twelve minutes, FIG. 4d) was “drops about hundred times”.
